Experimental data published in ChEMBL document CHEMBL2040759, “Design, synthesis and anticancer activity of nitric oxide donating/chalcone hybrids” (2012).

Legend:
Assay type in all cases: functional
NCI-H522 = assay: Growth inhibition of human NCI-H522 cells assessed as cell growth at 10^-5 M after 48 hrs by SRB assay; conditions: NCI-H522, 48 h, read-out: Activity
OVCAR-3 = assay: Growth inhibition of human OVCAR3 cells assessed as cell growth at 10^-5 M after 48 hrs by SRB assay; conditions: OVCAR-3, 48 h, read-out: Activity
[1] = Growth inhibition of human […] cells assessed as cell growth at 10^-5 M after 48 hrs by SRB assay; conditions: RPMI18226, 48 h, read-out: Activity
SNB-19 = assay: Growth inhibition of human SNB19 cells assessed as cell growth at 10^-5 M after 48 hrs by SRB assay; conditions: SNB-19, 48 h, read-out: Activity
NCI-H322M = assay: Growth inhibition of human NCI-H322M cells assessed as cell growth at 10^-5 M after 48 hrs by SRB assay; conditions: read-out: Activity
Malme-3M = assay: Growth inhibition of human MALME-3M cells assessed as cell growth at 10^-5 M after 48 hrs by SRB assay; conditions: read-out: Activity
OVCAR-5 = assay: Growth inhibition of human OVCAR5 cells assessed as cell growth at 10^-5 M after 48 hrs by SRB assay; conditions: OVCAR-5, 48 h, read-out: Activity
SF-295 = assay: Growth inhibition of human SF295 cells assessed as cell growth at 10^-5 M after 48 hrs by SRB assay; conditions: SF-295, 48 h, read-out: Activity
RXF 393 = assay: Growth inhibition of human RXF393 cells assessed as cell growth at 10^-5 M after 48 hrs by SRB assay; conditions: RXF 393, 48 h, read-out: Activity
UACC-257 = assay: Growth inhibition of human UACC257 cells assessed as cell growth at 10^-5 M after 48 hrs by SRB assay; conditions: UACC-257, 48 h, read-out: Activity
ACHN = assay: Growth inhibition of human ACHN cells assessed as cell growth at 10^-5 M after 48 hrs by SRB assay; conditions: read-out: Activity
HT-29 = assay: Growth inhibition of human HT-29 cells assessed as cell growth at 10^-5 M after 48 hrs by SRB assay; conditions: HT-29, 48 h, read-out: Activity
LOX IMVI = assay: Growth inhibition of human LOXIMVI cells assessed as cell growth at 10^-5 M after 48 hrs by SRB assay; conditions: read-out: Activity
SK-OV-3 = assay: Growth inhibition of human SKOV3 cells assessed as cell growth at 10^-5 M after 48 hrs by SRB assay; conditions: SK-OV-3, 48 h, read-out: Activity
[2] = Growth inhibition of human NCI-ADR-RES cells assessed as cell growth at 10^-5 M after 48 hrs by SRB assay; conditions: read-out: Activity
KM12 = assay: Growth inhibition of human KM12 cells assessed as cell growth at 10^-5 M after 48 hrs by SRB assay; conditions: KM12, 48 h, read-out: Activity
MCF7 = assay: Growth inhibition of human MCF7 cells assessed as cell growth at 10^-5 M after 48 hrs by SRB assay; conditions: MCF7, 48 h, read-out: Activity
SK-MEL-2 = assay: Growth inhibition of human SK-MEL-2 cells assessed as cell growth at 10^-5 M after 48 hrs by SRB assay; conditions: SK-MEL-2, 48 h, read-out: Activity
SNB-75 = assay: Growth inhibition of human SNB75 cells assessed as cell growth at 10^-5 M after 48 hrs by SRB assay; conditions: SNB-75, 48 h, read-out: Activity
SF-268 = assay: Growth inhibition of human SF268 cells assessed as cell growth at 10^-5 M after 48 hrs by SRB assay; conditions: SF-268, 48 h, read-out: Activity
HOP-62 = assay: Growth inhibition of human HOP62 cells assessed as cell growth at 10^-5 M after 48 hrs by SRB assay; conditions: HOP-62, 48 h, read-out: Activity
NCI-H226 = assay: Growth inhibition of human NCI-H226 cells assessed as cell growth at 10^-5 M after 48 hrs by SRB assay; conditions: NCI-H226, 48 h, read-out: Activity
COLO 205 = assay: Growth inhibition of human COLO205 cells assessed as cell growth at 10^-5 M after 48 hrs by SRB assay; conditions: COLO 205, 48 h, read-out: Activity
HCC 2998 = assay: Growth inhibition of human HCC2998 cells assessed as cell growth at 10^-5 M after 48 hrs by SRB assay; conditions: HCC 2998, 48 h, read-out: Activity
TK-10 = assay: Growth inhibition of human TK10 cells assessed as cell growth at 10^-5 M after 48 hrs by SRB assay; conditions: TK-10, 48 h, read-out: Activity
786-0 = assay: Growth inhibition of human 786-0 cells assessed as cell growth at 10^-5 M after 48 hrs by SRB assay; conditions: 786-0, 48 h, read-out: Activity
A498 = assay: Growth inhibition of human A498 cells assessed as cell growth at 10^-5 M after 48 hrs by SRB assay; conditions: A498, 48 h, read-out: Activity
SW-620 = assay: Growth inhibition of human SW620 cells assessed as cell growth at 10^-5 M after 48 hrs by SRB assay; conditions: SW-620, 48 h, read-out: Activity
UACC-62 = assay: Growth inhibition of human UACC62 cells assessed as cell growth at 10^-5 M after 48 hrs by SRB assay; conditions: UACC-62, 48 h, read-out: Activity
MDA-MB-468 = assay: Growth inhibition of human MDA-MB-468 cells assessed as cell growth at 10^-5 M after 48 hrs by SRB assay; conditions: MDA-MB-468, 48 h, read-out: Activity
IGROV-1 = assay: Growth inhibition of human IGROV1 cells assessed as cell growth at 10^-5 M after 48 hrs by SRB assay; conditions: IGROV-1, 48 h, read-out: Activity
HCT-15 = assay: Growth inhibition of human HCT15 cells assessed as cell growth at 10^-5 M after 48 hrs by SRB assay; conditions: HCT-15, 48 h, read-out: Activity
UO-31 = assay: Growth inhibition of human UO31 cells assessed as cell growth at 10^-5 M after 48 hrs by SRB assay; conditions: UO-31, 48 h, read-out: Activity
PC-3 = assay: Growth inhibition of human PC3 cells assessed as cell growth at 10^-5 M after 48 hrs by SRB assay; conditions: PC-3, 48 h, read-out: Activity
CCRF-CEM = assay: Growth inhibition of human CCRF-CEM cells assessed as cell growth at 10^-5 M after 48 hrs by SRB assay; conditions: read-out: Activity
MDA-MB-435 = assay: Growth inhibition of human MDA-MB-435 cells assessed as cell growth at 10^-5 M after 48 hrs by SRB assay; conditions: MDA-MB-435, 48 h, read-out: Activity

O=C(CO[N+](=O)[O-])Nc1ccc(C(=O)/C=C/c2ccc(Cl)cc2)cc1
growth at 10 µM (NCI-H522): 38.7% | growth at 10 µM (OVCAR-3): 0.33% | growth at 10 µM [1]: -14.2% | growth at 10 µM (SNB-19): 87.8% | growth at 10 µM (NCI-H322M): 71.5% | growth at 10 µM (Malme-3M): 79.1% | growth at 10 µM (OVCAR-5): 67% | growth at 10 µM (SF-295): 105% | growth at 10 µM (RXF 393): 72.5% | growth at 10 µM (UACC-257): 61.2% | growth at 10 µM (ACHN): 62.3% | growth at 10 µM (HT-29): -23.4% | growth at 10 µM (LOX IMVI): -60.9% | growth at 10 µM (SK-OV-3): 89.3% | growth at 10 µM [2]: 29.9% | growth at 10 µM (KM12): -60.6% | growth at 10 µM (MCF7): 1.64% | growth at 10 µM (SK-MEL-2): 81.7% | growth at 10 µM (SNB-75): 69.7% | growth at 10 µM (SF-268): 44.9% | growth at 10 µM (HOP-62): 94.1% | growth at 10 µM (NCI-H226): 81.7% | growth at 10 µM (COLO 205): 36.1% | growth at 10 µM (HCC 2998): -61.3% | growth at 10 µM (TK-10): 45.7% | growth at 10 µM (786-0): 75% | growth at 10 µM (A498): 103% | growth at 10 µM (SW-620): -61.8% | growth at 10 µM (UACC-62): 49.2% | growth at 10 µM (MDA-MB-468): 48.7% | growth at 10 µM (IGROV-1): -26% | growth at 10 µM (HCT-15): 58.9% | growth at 10 µM (UO-31): 31.9% | growth at 10 µM (PC-3): 27.6% | growth at 10 µM (CCRF-CEM): 20.1% | growth at 10 µM (MDA-MB-435): -2.76%

O=C(CO[N+](=O)[O-])Nc1ccc(C(=O)/C=C/c2ccc3c(c2)OCO3)cc1
growth at 10 µM (NCI-H522): 97.6% | growth at 10 µM (OVCAR-3): 80.6% | growth at 10 µM [1]: 46.8% | growth at 10 µM (SNB-19): 104% | growth at 10 µM (NCI-H322M): 108% | growth at 10 µM (Malme-3M): 116% | growth at 10 µM (OVCAR-5): 96.5% | growth at 10 µM (SF-295): 74.6% | growth at 10 µM (RXF 393): 107% | growth at 10 µM (UACC-257): 92.9% | growth at 10 µM (ACHN): 99.2% | growth at 10 µM (HT-29): 30.1% | growth at 10 µM (LOX IMVI): 21.5% | growth at 10 µM (SK-OV-3): 111% | growth at 10 µM [2]: 84.5% | growth at 10 µM (KM12): 35.9% | growth at 10 µM (MCF7): 26.2% | growth at 10 µM (SK-MEL-2): 119% | growth at 10 µM (SNB-75): 86.3% | growth at 10 µM (SF-268): 82.4% | growth at 10 µM (HOP-62): 112% | growth at 10 µM (NCI-H226): 107% | growth at 10 µM (COLO 205): 113% | growth at 10 µM (HCC 2998): 69.2% | growth at 10 µM (TK-10): 111% | growth at 10 µM (786-0): 109% | growth at 10 µM (A498): 107% | growth at 10 µM (SW-620): 47.8% | growth at 10 µM (UACC-62): 96% | growth at 10 µM (MDA-MB-468): 91.9% | growth at 10 µM (IGROV-1): 46.3% | growth at 10 µM (HCT-15): 76.7% | growth at 10 µM (UO-31): 77.1% | growth at 10 µM (PC-3): 61.4% | growth at 10 µM (CCRF-CEM): 70% | growth at 10 µM (MDA-MB-435): 62.6%
